# Laboratory results taken from PubChem BioAssay (NCI).
#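 Exposure lasted 48 hours, with cells grown in 96-well plates and compounds tested at five concentrations. TGI is the concentration that stops growth completely.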
# How the values were obtained:
# Experiment in all cases: NCI-60 cell line screen, 48 h
# [1] = system: UACC-257 melanoma
# [2] = system: M14 melanoma
# [3] = system: TK-10 renal
# [4] = system: OVCAR-5 ovarian
# [5] = system: SK-MEL-28 melanoma
# [6] = system: UACC-62 melanoma
# [7] = system: LOX IMVI melanoma
# [8] = system: OVCAR-3 ovarian
# [9] = system: SF-295 CNS
# [10] = system: MDA-MB-435
# [11] = system: SF-539 CNS
# [12] = system: NCI-H522 lung
# [13] = system: RXF 393 renal
# [14] = system: NCI-H460 lung
# [15] = system: KM12 colon
# [16] = system: HCT-15 colon
# [17] = system: COLO 205 colon
# [18] = system: SNB-75 CNS
# [19] = system: CAKI-1 renal
# [20] = system: BT-549 breast
# [21] = system: HCC-2998 colon
# [22] = system: OVCAR-8 ovarian
# [23] = system: MDA-N
# [24] = system: NCI/ADR-RES ovarian
# [25] = system: HCT-116 colon
# [26] = system: OVCAR-4 ovarian
# [27] = system: PC-3 prostate
# [28] = system: ACHN renal
# [29] = system: 786-0 renal
# [30] = system: SNB-19 CNS
# [31] = system: SN12C renal
# [32] = system: HT29 colon
# [33] = system: A549 NSCLC
# [34] = system: NCI-H226 lung
# [35] = system: UO-31 renal
# [36] = system: MDA-MB-231 breast
# [37] = system: CCRF-CEM leukemia
# [38] = system: A498 renal
# [39] = system: HL-60(TB) leukemia
# [40] = system: SK-OV-3 ovarian
# [41] = system: SF-268 CNS
# [42] = system: DU-145 prostate
# [43] = system: U251 CNS
# [44] = system: SK-MEL-5 melanoma
# [45] = system: NCI-H23 lung
# [46] = system: MCF7 breast
# [47] = system: HOP-92 NSCLC
# [48] = system: MALME-3M melanoma
# [49] = system: SW-620 colon
# [50] = system: K-562 leukemia
# [51] = system: HS 578T breast
# [52] = system: EKVX NSCLC
# [53] = system: HOP-62 NSCLC
# [54] = system: RPMI-8226 leukemia
# [55] = system: MOLT-4 leukemia
# [56] = system: SK-MEL-2 melanoma
# [57] = system: IGROV1 ovarian
# [58] = system: SR leukemia
smiles,measurement,setting,value
CC(=O)N(C(C)=O)n1c(Cc2ccc(Cl)cc2)n[nH]c1=O,TGI,[1],> 100000 nM
same,TGI,[2],> 100000 nM
same,TGI,[3],> 100000 nM
same,TGI,[4],> 100000 nM
same,TGI,[5],> 100000 nM
same,TGI,[6],> 100000 nM
same,TGI,[7],> 100000 nM
same,TGI,[8],> 100000 nM
same,TGI,[9],> 100000 nM
same,TGI,[10],> 100000 nM
same,TGI,[11],> 100000 nM
same,TGI,[12],> 100000 nM
same,TGI,[13],> 100000 nM
same,TGI,[14],> 100000 nM
same,TGI,[15],> 100000 nM
same,TGI,[16],> 100000 nM
same,TGI,[17],> 100000 nM
same,TGI,[18],> 100000 nM
same,TGI,[19],> 100000 nM
same,TGI,[20],> 100000 nM
same,TGI,[21],> 100000 nM
same,TGI,[22],> 100000 nM
same,TGI,[23],> 100000 nM
same,TGI,[24],> 100000 nM
same,TGI,[25],> 100000 nM
same,TGI,[26],> 100000 nM
same,TGI,[27],> 100000 nM
same,TGI,[28],> 100000 nM
same,TGI,[29],> 100000 nM
same,TGI,[30],> 100000 nM
same,TGI,[31],> 100000 nM
same,TGI,[32],> 100000 nM
same,TGI,[33],> 100000 nM
same,TGI,[34],> 100000 nM
same,TGI,[35],> 100000 nM
same,TGI,[36],> 100000 nM
same,TGI,[37],> 100000 nM
same,TGI,[38],> 100000 nM
same,TGI,[39],> 100000 nM
same,TGI,[40],> 100000 nM
same,TGI,[41],> 100000 nM
same,TGI,[42],> 100000 nM
same,TGI,[43],> 100000 nM
same,TGI,[44],> 100000 nM
same,TGI,[45],> 100000 nM
same,TGI,[46],> 100000 nM
same,TGI,[47],> 100000 nM
same,TGI,[48],> 100000 nM
same,TGI,[49],> 100000 nM
same,TGI,[50],> 100000 nM
same,TGI,[51],> 100000 nM
same,TGI,[52],> 100000 nM
same,TGI,[53],98800 nM
same,TGI,[54],> 100000 nM
same,TGI,[55],> 100000 nM
same,TGI,[56],> 100000 nM
same,TGI,[57],> 100000 nM
same,TGI,[58],> 100000 nM
c1ccc(CCCCNCc2cc(CNCCCCc3ccccc3)cc(CNCCCCc3ccccc3)c2)cc1,TGI,[2],330 nM
same,TGI,[4],3220 nM
same,TGI,[5],1840 nM
same,TGI,[8],2770 nM
same,TGI,[9],3060 nM
same,TGI,[14],> 100000 nM
same,TGI,[16],368 nM
same,TGI,[17],644 nM
same,TGI,[20],2830 nM
same,TGI,[23],10200 nM
same,TGI,[24],1100 nM
same,TGI,[25],6420 nM
same,TGI,[28],2950 nM
same,TGI,[29],26400 nM
same,TGI,[30],908 nM
same,TGI,[31],23500 nM
same,TGI,[33],326 nM
same,TGI,[35],949 nM
same,TGI,[37],432 nM
same,TGI,[39],434 nM
same,TGI,[40],3410 nM
same,TGI,[42],2070 nM
same,TGI,[45],2110 nM
same,TGI,[50],> 100000 nM
Nc1nc(I)nc2c1ncn2C1OC(COS(N)(=O)=O)C(O)C1O (configuration not stated),TGI,[1],71.6 nM
same,TGI,[2],28 nM
same,TGI,[3],71 nM
same,TGI,[4],18.9 nM
same,TGI,[5],14.8 nM
same,TGI,[6],60.6 nM
same,TGI,[7],25.1 nM
same,TGI,[8],12 nM
same,TGI,[9],168 nM
same,TGI,[10],13.8 nM
same,TGI,[11],< 14 nM
same,TGI,[12],< 10 nM
same,TGI,[13],44.1 nM
same,TGI,[14],108 nM
same,TGI,[15],29.7 nM
same,TGI,[16],305 nM
same,TGI,[17],16.7 nM
same,TGI,[18],< 13.6 nM
same,TGI,[19],129 nM
same,TGI,[20],103 nM
same,TGI,[21],31.1 nM
same,TGI,[22],< 10.6 nM
same,TGI,[23],13.5 nM
same,TGI,[24],< 12.5 nM
same,TGI,[25],53.4 nM
same,TGI,[26],< 15.8 nM
same,TGI,[27],42.3 nM
same,TGI,[28],211 nM
same,TGI,[29],29.7 nM
same,TGI,[30],< 13 nM
same,TGI,[31],32 nM
same,TGI,[32],35.3 nM
same,TGI,[33],201 nM
same,TGI,[34],< 15.9 nM
same,TGI,[35],65.3 nM
same,TGI,[36],< 23.8 nM
same,TGI,[37],26.8 nM
same,TGI,[38],< 10 nM
same,TGI,[40],45.8 nM
same,TGI,[41],18 nM
same,TGI,[42],< 19.3 nM
same,TGI,[43],24.3 nM
same,TGI,[44],< 11.3 nM
same,TGI,[45],32.4 nM
same,TGI,[46],207 nM
same,TGI,[47],46.4 nM
same,TGI,[48],< 10 nM
same,TGI,[49],165 nM
same,TGI,[50],370 nM
same,TGI,[51],27.3 nM
same,TGI,[52],57.3 nM
same,TGI,[53],83.6 nM
same,TGI,[54],172 nM
same,TGI,[55],41.6 nM
same,TGI,[56],10.7 nM
same,TGI,[57],40.1 nM
same,TGI,[58],< 10 nM
CCOC(=O)N(NC(=O)NC(C)C)c1ccccc1,TGI,[1],> 100000 nM
same,TGI,[2],> 100000 nM
same,TGI,[3],> 100000 nM
same,TGI,[4],> 100000 nM
same,TGI,[5],> 100000 nM
same,TGI,[6],> 100000 nM
same,TGI,[7],> 100000 nM
same,TGI,[8],> 100000 nM
same,TGI,[9],> 100000 nM
same,TGI,[11],> 100000 nM
same,TGI,[13],> 100000 nM
same,TGI,[14],> 100000 nM
same,TGI,[15],> 100000 nM
same,TGI,[16],> 100000 nM
same,TGI,[17],> 100000 nM
same,TGI,[18],> 100000 nM
same,TGI,[19],> 100000 nM
same,TGI,[20],> 100000 nM
same,TGI,[21],> 100000 nM
same,TGI,[22],> 100000 nM
same,TGI,[23],> 100000 nM
same,TGI,[24],> 100000 nM
same,TGI,[25],> 100000 nM
same,TGI,[26],> 100000 nM
same,TGI,[27],> 100000 nM
same,TGI,[28],> 100000 nM
same,TGI,[29],> 100000 nM
same,TGI,[30],> 100000 nM
same,TGI,[31],> 100000 nM
same,TGI,[32],> 100000 nM
same,TGI,[33],> 100000 nM
same,TGI,[34],> 100000 nM
same,TGI,[35],> 100000 nM
same,TGI,[36],> 100000 nM
same,TGI,[37],> 100000 nM
same,TGI,[38],> 100000 nM
same,TGI,[39],> 100000 nM
same,TGI,[40],> 100000 nM
same,TGI,[43],> 100000 nM
same,TGI,[44],> 100000 nM
same,TGI,[45],> 100000 nM
same,TGI,[46],> 100000 nM
same,TGI,[47],> 100000 nM
same,TGI,[48],> 100000 nM
same,TGI,[49],> 100000 nM
same,TGI,[50],> 100000 nM
same,TGI,[51],> 100000 nM
same,TGI,[52],> 100000 nM
same,TGI,[53],> 100000 nM
same,TGI,[55],> 100000 nM
same,TGI,[56],> 100000 nM
same,TGI,[57],> 100000 nM
same,TGI,[58],> 100000 nM
